This passage reports IC50 results from US20220024921A1, “1,3,4-OXADIAZOLONE COMPOUND AND PHARMACEUTICAL” (NIPPON SHINYAKU CO., LTD., priority 2018, published 2022).

Molecules are shown by their SMILES. Where a name gives a salt, the structure may show the parent alone.

T1 sequence (P11309 whole entry): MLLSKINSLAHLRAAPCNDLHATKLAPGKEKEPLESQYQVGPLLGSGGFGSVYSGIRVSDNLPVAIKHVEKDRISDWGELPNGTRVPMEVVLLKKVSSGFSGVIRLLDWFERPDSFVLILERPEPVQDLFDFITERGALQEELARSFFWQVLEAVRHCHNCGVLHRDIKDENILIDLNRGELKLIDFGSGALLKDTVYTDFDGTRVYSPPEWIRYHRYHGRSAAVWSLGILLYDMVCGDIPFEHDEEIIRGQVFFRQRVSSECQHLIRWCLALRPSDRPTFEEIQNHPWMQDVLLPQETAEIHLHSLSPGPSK

This assay addresses T1, PIM1 serine/threonine kinase (Homo sapiens, UniProt P11309).
T1 construct: purchased Carna Bioscience, Inc
Briefly: PIM1 serine/threonine kinase inhibitory effect. As to conditions: PIM1 serine/threonine kinase activity; ATP 40 μM; 30° C., 30 minutes. It is filed as biochemical. Here is the method:
Each test substance was prepared to 10 mM with dimethylsulfoxide (DMSO), and further diluted with DMSO so as to have concentrations of 1000, 300, 100, 30, 10, 3, 1, 0.3, 0.1, 0.03, 0.01, and 0.001 μM. Moreover, each dilution was further diluted 33.3-fold with an assay buffer to prepare a test substance solution. The composition of the assay buffer was 50 mM HEPES (pH 7.0), 0.02% NaN3, 0.01% Bovine Serum Albumin, 0.1 mM Orthovanadate, 1 mM Dithiothreitol, and 5 mM MgCl2.
5 μL of each test substance solution was added to 384-well plates (n=2), and then 2.5 μL of a substrate solution (substrate 3-biotin (Cisbio Bioassays SAS), final concentration in the reaction solution: 0.5 μM) and 2.5 μL of an ATP solution (in the cases of PIM1, 2, 3, the final concentrations in the reaction solutions were 40, 2, and 10 μM, respectively) were added, 5 μL of each of PIM1, 2, 3 serine/threonine kinase solutions (Carna Bioscience, Inc., the final concentrations in the reaction solutions were 0.15, 1.6, and 0.25 μg/ml, respectively) was finally added, and the mixture was reacted at 30° C. for 30 minutes. The test substance concentrations in the reaction solutions are 10000, 3000, 1000, 300, 100, 30, 10, 3, 1, 0.3, 0.1, and 0.01 nM.
Thereafter, 15 μL of each detection solution (62.5 nM Streptavidin-XL665 (Cisbio Bioassays SAS), […] STK antibody-Cryptate (Cisbio Bioassays SAS), 50 mM HEPES (pH 7.0), 0.8 M KF, 0.1% Bovine Serum Albumin, 20 mM ethylenediaminetetraacetic acid) was added to each well. After stirring, the mixture was reacted at 30° C. for 1 hour. Absorbance (OD620, OD665) at 620 and 665 nm was measured with a microplate reader (SpectraMax M5e, Molecular Devices, LLC).
Non-linear regression analysis was performed by an SAS system (SAS Institute Inc.) using the ratio (OD665/OD620) of the measured absorbance to calculate a test substance concentration (IC50) that inhibits PIM1 serine/threonine kinase activity by 50%.
The IC50 is the concentration that gives 50% inhibition. `CC(C)(C)OC(=O)NCc1ccc(-c2cc(-c3n[nH]c(=O)o3)ccc2C(F)(F)F)cc1` [Example 19, tert-butyl {[5′-(5-oxo-4,5-dihydro-1,3,4-oxadiazol-2-yl)-2′-(trifluoromethyl)[1,1′-biphenyl]-4-yl]methyl}carbamate] gave an IC50 of 1500 nM.
To `NCc1ccc(Nc2cc(-c3n[nH]c(=O)o3)ccc2C(F)(F)F)cc1` [Example 41, 5-{3-[4-(aminomethyl)anilino]-4-(trifluoromethyl)phenyl}-1,3,4-oxadiazol-2(3H)-one hydrochloride] belongs 40 nM; to `N[C@H]1CC[C@H](CNc2cccc(-c3n[nH]c(=O)o3)c2)CC1` [Example 62, 5-[3-({[(1r,4r)-4-aminocyclohexyl]methyl}amino)phenyl]-1,3,4-oxadiazol-2(3H)-one hydrochloride], 140 nM.
To `NCc1cccc(-c2cc(-c3n[nH]c(=O)o3)ccc2C(F)(F)F)c1` [Example 21, 5-[3′-(aminomethyl)-6-(trifluoromethyl)[1,1′-biphenyl]-3-yl]-1,3,4-oxadiazol-2(3H)-one hydrochloride] belongs 160 nM; to `NC(=O)[C@H]1CC[C@H](CNc2cc(-c3n[nH]c(=O)o3)ccc2C(F)(F)F)CC1` [Example 121, (1r,4r)-4-{[5-(5-oxo-4,5-dihydro-1,3,4-oxadiazol-2-yl)-2-(trifluoromethyl)anilino]methyl}cyclohexane-1-carboxamide], 120 nM.
The value for `C[C@H](Nc1cc(-c2n[nH]c(=O)o2)ccc1F)C1CCNCC1` [Example 80, 5-(4-fluoro-3-{[(1S)-1-(piperidin-4-yl)ethyl]amino}phenyl)-1,3,4-oxadiazol-2(3H)-one hydrochloride] was 56 nM; that for `CC(C[C@H]1CCNC1)Nc1cc(-c2n[nH]c(=O)o2)ccc1C(F)(F)F` (stereo partly drawn) [Example 136, 5-[3-({1-[(3R)-pyrrolidin-3-yl]propan-2-yl}amino)-4-(trifluoromethyl)phenyl]-1,3,4-oxadiazol-2(3H)-one hydrochloride] was 16 nM.
Regarding `O=c1[nH]nc(-c2ccc(C(F)(F)F)c(N[C@@H](C3CCNCC3)C(F)(F)F)c2)o1` [Example 147, 5-[4-(trifluoromethyl)-3-{[(1S)-2,2,2-trifluoro-1-(piperidin-4-yl)ethyl]amino}phenyl]-1,3,4-oxadiazol-2(3H)-one hydrochloride], half-maximal inhibition (IC50) was put at 23 nM.
To `O=c1[nH]nc(-c2ccc(C(F)(F)F)c(-c3ccc(OCC4CCNCC4)cc3)c2)o1` [Example 23, 5-{4′-[(piperidin-4-yl)methoxy]-6-(trifluoromethyl)[1,1′-biphenyl]-3-yl}-1,3,4-oxadiazol-2(3H)-one hydrochloride] belongs 110 nM; to `CC(C[C@@H]1CCNC1)Nc1cc(-c2n[nH]c(=O)o2)ccc1C(F)(F)F` (stereo partly drawn) [Example 134, 5-[3-({1-[(3S)-pyrrolidin-3-yl]propan-2-yl}amino)-4-(trifluoromethyl)phenyl]-1,3,4-oxadiazol-2(3H)-one hydrochloride], 14 nM; to `NCCCNc1cc(-c2n[nH]c(=O)o2)ccc1C(F)(F)F` [Example 2, 5-{3-[(3-aminopropyl)amino]-4-(trifluoromethyl)phenyl}-1,3,4-oxadiazol-2(3H)-one], 27 nM.
The value for `O=c1[nH]nc(-c2ccc(C(F)(F)F)c(NC[C@H]3CC[C@H](C(=O)O)CC3)c2)o1` [Example 119, (1r,4r)-4-{[5-(5-oxo-4,5-dihydro-1,3,4-oxadiazol-2-yl)-2-(trifluoromethyl)anilino]methyl}cyclohexane-1-carboxylic acid] was 1800 nM.
To `COc1ccc(-c2n[nH]c(=O)o2)cc1N[C@@H](C)C1CCNCC1` [Example 82, 5-(4-methoxy-3-{[(1S)-1-(piperidin-4-yl)ethyl]amino}phenyl)-1,3,4-oxadiazol-2(3H)-one dihydrochloride] belongs 71 nM; to `CC(C)(C)OC(=O)N1CCN(c2cc(-c3n[nH]c(=O)o3)ccc2Cl)CC1` [Example 7, tert-butyl 4-[2-chloro-5-(5-oxo-4,5-dihydro-1,3,4-oxadiazol-2-yl)phenyl]piperazine-1-carboxylate], 4100 nM; to `O=c1[nH]nc(-c2ccc(Cl)c(N3CCNCC3)c2)o1` [Example 8, 5-[4-chloro-3-(piperazin-1-yl)phenyl]-1,3,4-oxadiazol-2(3H)-one hydrochloride], 810 nM.
Turning to `CC(C)(C)OC(=O)NCc1cccc(-c2cc(-c3n[nH]c(=O)o3)ccc2Cl)c1` [Example 17, tert-butyl {[2′-chloro-5′-(5-oxo-4,5-dihydro-1,3,4-oxadiazol-2-yl)[1,1′-biphenyl]-3-yl]methyl}carbamate], half-maximal inhibition (IC50) required 1300 nM. This IC50 is about 1.6-fold higher than that of the compound before.
Compound `CN(Cc1cc(-c2n[nH]c(=O)o2)ccc1Cl)C1CCNCC1` [Example 205, 5-(4-chloro-3-{[methyl(piperidin-4-yl)amino]methyl}phenyl)-1,3,4-oxadiazol-2(3H)-one dihydrochloride] came in with a 50% inhibitory concentration (IC50) of 290 nM.
In the case of `Cc1c(-c2n[nH]c(=O)o2)cc(Cl)c(Cl)c1N[C@@H](C)C1CCNCC1` [Example 93, 5-(4,5-dichloro-2-methyl-3-{[(1S)-1-(piperidin-4-yl)ethyl]amino}phenyl)-1,3,4-oxadiazol-2(3H)-one hydrochloride], the IC50 was 36 nM. Compared with the last compound, the IC50 is about 8.1-fold lower.
To `CC(C)(C)OC(=O)[C@H]1CC[C@H](CNc2cc(-c3n[nH]c(=O)o3)ccc2C(F)(F)F)CC1` [Example 118, tert-butyl (1r,4r)-4-{[5-(5-oxo-4,5-dihydro-1,3,4-oxadiazol-2-yl)-2-(trifluoromethyl)anilino]methyl}cyclohexane-1-carboxylate] belongs 7300 nM; to `C[C@H](Nc1cc(-c2n[nH]c(=O)o2)ccn1)C1CCNCC1` [Example 112, 5-(2-{[(1S)-1-(piperidin-4-yl)ethyl]amino}pyridin-4-yl)-1,3,4-oxadiazol-2(3H)-one dihydrochloride], 600 nM.
The value for `O=c1[nH]nc(-c2ccc(C(F)(F)F)c(NC[C@H]3CC[C@H](CO)CC3)c2)o1` [Example 120, 5-[3-({[(1r,4r)-4-(hydroxymethyl)cyclohexyl]methyl}amino)-4-(trifluoromethyl)phenyl]-1,3,4-oxadiazol-2(3H)-one] was 590 nM; that for `CC(=O)N1CCC(N(C)Cc2cc(-c3n[nH]c(=O)o3)ccc2Cl)CC1` [Example 215, 5-(3-{[(1-acetylpiperidin-4-yl)(methyl)amino]methyl}-4-chlorophenyl)-1,3,4-oxadiazol-2(3H)-one hydrochloride] was 8800 nM; that for `C[C@H](Nc1cc(-c2n[nH]c(=O)o2)ccc1S(C)(=O)=O)C1CCNCC1` [Example 128, 5-[4-(methanesulfonyl)-3-{[(1S)-1-(piperidin-4-yl)ethyl]amino}phenyl]-1,3,4-oxadiazol-2(3H)-one hydrochloride] was 82 nM.
In turn, `C[C@H](Nc1cc(-c2n[nH]c(=O)o2)cc(C2CC2)c1Cl)C1CCNCC1` [Example 102, 5-(4-chloro-3-cyclopropyl-5-{[(1S)-1-(piperidin-4-yl)ethyl]amino}phenyl)-1,3,4-oxadiazol-2(3H)-one] displayed an IC50 of 36 nM.
To `NC1CCN(c2cc(-c3n[nH]c(=O)o3)ccc2C(F)(F)F)CC1` [Example 9, 5-[3-(4-aminopiperidin-1-yl)-4-(trifluoromethyl)phenyl]-1,3,4-oxadiazol-2(3H)-one hydrochloride] belongs 45 nM.
